Test system: moderate-to-severe chronic spontaneous urticaria (CSU)
Experiment: Phase 2 CSU study: hives severity score over 7 days (HSS7)
Format: in vivo, human
Design: key to HSS7 Change from baseline, Median / HSS7, Median / HSS7, Max / HSS7 Change from baseline, Q1 / HSS7 Change from baseline, Q3 / HSS7 Change from baseline, Max: 7-day sum of daily hive scores, each 0 = none to 3 = >50 hives
From the text: The study comprises a 12 week, randomized, double-blind, placebo-controlled, multi-center, dose-ranging efficacy and safety phase, followed by a 40 week open label extension (OLE) phase (see FIG. 1).
The study consists of three phases and an optional OLE phase.
The UAS is a validated PRO measure. The daily UAS is the sum of the daily Hive Severity Score (HSS, ranging from 0=None to 3=more than 50 hives) and the daily Itch Severity Score (ISS, ranging from 0=None to 3=intense), the 2 key urticaria signs and symptoms which are wheals and itch. The daily UAS scores range from 0 to 6 point/day. Daily UAS scores are summed over 7-day period to create the UAS7, ranging from 0 to 42, and are composed of the HSS7 and ISS7 components. […] Patients were to complete the UAS using the e-diary. The e-diary was to be used once daily on the same time of each day recording of participant's answers to the urticaria activity score over 7 days (UAS7) questionnaire. For participants who entered the OLE phase, their answers to the UAS7 questionnaire were also to be collected from Week 20 to Week24 and from Week 48 to Week 52.
The following secondary endpoints were to be analyzed using the same approach as for the primary endpoint: • Change from baseline in UAS7 at Week 4 • Change from baseline in UAS7 at Week 12 (for US and US reference countries) • Change from baseline in ISS7 at Week 12 (except US and US reference countries) • Change from baseline in HSS7 at Week 12

[1] = 400 mg QPM, Week 10, ITT Population
[2] = 400 mg QPM, Week 11, ITT Population
[3] = 400 mg QPM, Week 12, ITT population
[4] = 400 mg QPM, Week 12, Omalizumab-Naïve Population
[5] = 400 mg TID, Omalizumab-Naïve Population, last block under Week 12, double-blind period, WOCF imputation
[6] = 400 mg TID, Week 1, ITT Population
[7] = 400 mg TID, Week 1, Omalizumab-Naïve Population
[8] = 400 mg TID, Week 2, ITT Population
[9] = 400 mg TID, Week 2, Omalizumab-Naïve Population
[10] = 400 mg TID, Week 3, ITT Population
[11] = 400 mg TID, Week 3, Omalizumab-Naïve Population
[12] = 400 mg TID, Week 4, ITT population
[13] = 400 mg TID, Week 4, Omalizumab-Naïve Population
[14] = 400 mg TID, Week 5, ITT Population
[15] = 400 mg TID, Week 5, Omalizumab-Naïve Population
[16] = 400 mg TID, Week 6, ITT Population
[17] = 400 mg TID, Week 6, Omalizumab-Naïve Population
[18] = 400 mg TID, Week 7, ITT Population
[19] = 400 mg TID, Week 7, Omalizumab-Naïve Population
[20] = 400 mg TID, Week 8, ITT population
[21] = 400 mg TID, Week 8, Omalizumab-Naïve Population

Structure (SMILES): CC(C)(C=C(C#N)C(=O)N1CCC[C@@H](n2nc(-c3ccc(Oc4ccccc4)cc3F)c3c(N)ncnc32)C1)N1CCN(C2COC2)CC1 [rilzabrutinib, (R)-2-[3-[4-amino-3-(2-fluoro-4-phenoxy-phenyl)pyrazolo[3,4-d]pyrimidin-1-yl]piperidine-1-carbonyl]-4-methyl-4-[4-(oxetan-3-yl)piperazin-1-yl]pent-2-enenitrile]
- HSS7 % Change difference for rilzabrutinib vs.placebo LS Mean (95% CI) [1]: −6.70 %
- HSS7 % Change from baseline LS Mean (SE) [1]: −34.70 (6.79) %
- HSS7 Change difference for rilzabrutinib vs.placebo LS Mean (95% CI) [1]: −0.56 (−3.19, 2.07)
- HSS7 Change from baseline LS Mean (SE) [1]: −5.16 (0.98)
- HSS7 Postbaseline Mean (SD) [1]: 9.82 (5.85)
- HSS7 Postbaseline Mean (SD) (400 mg QPM, Week 10, Omalizumab-Naïve Population): 9.88 (5.93)
- HSS7 Postbaseline Mean (SD) (400 mg QPM, Week 10, Omalizumab-Naïve Population with Outlier Removed from Analysis): 9.88 (5.93)
- HSS7 % Change difference for rilzabrutinib vs.placebo LS Mean (95% CI) [2]: −8.01 %
- HSS7 % Change from baseline LS Mean (SE) [2]: −34.56 (7.07) %
- HSS7 Change difference for rilzabrutinib vs.placebo LS Mean (95% CI) [2]: −0.43 (−3.08, 2.22)
- HSS7 Change from baseline LS Mean (SE) [2]: −4.97 (0.99)
- HSS7 Postbaseline Mean (SD) [2]: 10.15 (6.09)
- HSS7 Postbaseline Mean (SD) (400 mg QPM, Week 11, Omalizumab-Naïve Population): 10.18 (6.18)
- HSS7 Postbaseline Mean (SD) (400 mg QPM, Week 11, Omalizumab-Naïve Population with Outlier Removed from Analysis): 10.18 (6.18)
- HSS7 % Change difference for rilzabrutinib vs.placebo LS Mean (95% CI) [3]: −5.74 %
- HSS7 % Change from baseline LS Mean (SE) [3]: −33.48 (7.28) %
- HSS7 Change difference for rilzabrutinib vs.placebo LS Mean (95% CI) [3]: 0.14 (−2.62, 2.91)
- HSS7 Change from baseline LS Mean (SE) [3]: −4.75 (1.03)
- HSS7 Change difference for rilzabrutinib vs.placebo LS Mean (95% CI) [4]: −0.09 (−2.92, 2.75)
- HSS7 Change from baseline LS Mean (SE) [4]: −4.49 (1.04)
- median reduction in HSS7 at Week 12 (400 mg TID, ITT population): −8.31 points
- HSS7, Max [5]: 16.0
- HSS7, Min [5]: 2.0
- HSS7 Change from baseline, Max [5]: 0.0
- HSS7 Change from baseline, Mean (SD) [5]: −5.20 (3.11)
- HSS7 Change from baseline, Median [5]: −6.00
- HSS7 Change from baseline, Min [5]: −8.0
- HSS7 Change from baseline, Q1 [5]: −7.00
- HSS7 Change from baseline, Q3 [5]: −5.00
- HSS7 Percent change from baseline, Max [5]: 0.0%
- HSS7 Percent change from baseline, Mean (SD) [5]: −38.89 (26.61) percent
- HSS7 Percent change from baseline, Median [5]: −44.44%
- HSS7 Percent change from baseline, Min [5]: −71.4%
- HSS7 Percent change from baseline, Q1 [5]: −50.00%
- HSS7 Percent change from baseline, Q3 [5]: −28.57%
- HSS7 % Change difference for rilzabrutinib vs.placebo LS Mean (95% CI) [6]: −30.65 %
- HSS7 % Change from baseline LS Mean (SE) [6]: −39.34 (5.49) %
- HSS7 Change from baseline LS Mean (SE) [6]: −6.09 (0.74)
- HSS7 Postbaseline Mean (SD) [6]: 7.76 (4.83)
- HSS7 % Change difference for rilzabrutinib vs.placebo LS Mean (95% CI) [7]: −27.41 %
- HSS7 % Change from baseline LS Mean (SE) [7]: −34.85 (6.00) %
- HSS7 Change from baseline LS Mean (SE) [7]: −5.32 (0.79)
- HSS7 Postbaseline Mean (SD) [7]: 8.26 (4.91)
- HSS7 Postbaseline Mean (SD) (400 mg TID, Week 1, Omalizumab-Naïve Population with Outlier Removed from Analysis): 8.50 (4.76)
- HSS7 % Change difference for rilzabrutinib vs.placebo LS Mean (95% CI) [8]: −30.93 %
- HSS7 % Change from baseline LS Mean (SE) [8]: −47.49 (5.64) %
- HSS7 Change difference for rilzabrutinib vs.placebo LS Mean (95% CI) [8]: −4.24 (−6.33, −2.15)
- HSS7 Change from baseline LS Mean (SE) [8]: −7.16 (0.77)
- HSS7 Postbaseline Mean (SD) [8]: 6.61 (5.06)
- HSS7 % Change difference for rilzabrutinib vs.placebo LS Mean (95% CI) [9]: −27.36 %
- HSS7 % Change from baseline LS Mean (SE) [9]: −42.63 (6.08) %
- HSS7 Postbaseline Mean (SD) [9]: 7.25 (5.05)
- HSS7 Postbaseline Mean (SD) (400 mg TID, Week 2, Omalizumab-Naïve Population with Outlier Removed from Analysis): 7.44 (5.01)
- HSS7 % Change difference for rilzabrutinib vs.placebo LS Mean (95% CI) [10]: −29.56 %
- HSS7 % Change from baseline LS Mean (SE) [10]: −48.71 (5.82) %
- HSS7 Change difference for rilzabrutinib vs.placebo LS Mean (95% CI) [10]: −3.79 (−5.97, −1.61)
- HSS7 Change from baseline LS Mean (SE) [10]: −7.29 (0.81)
- HSS7 Postbaseline Mean (SD) [10]: 6.49 (4.72)
- HSS7 % Change difference for rilzabrutinib vs.placebo LS Mean (95% CI) [11]: −27.37 %
- HSS7 % Change from baseline LS Mean (SE) [11]: −45.07 (6.36) %
- HSS7 Postbaseline Mean (SD) [11]: 7.03 (4.82)
- HSS7 Postbaseline Mean (SD) (400 mg TID, Week 3, Omalizumab-Naïve Population with Outlier Removed from Analysis): 7.03 (4.89)
- HSS7 % Change difference for rilzabrutinib vs.placebo LS Mean (95% CI) [12]: −29.20 %
- HSS7 % Change from baseline LS Mean (SE) [12]: −47.90 (5.95) %
- HSS7 Change difference for rilzabrutinib vs.placebo LS Mean (95% CI) [12]: −3.53 (−5.74, −1.31)
- HSS7 Change from baseline LS Mean (SE) [12]: −6.98 (0.82)
- HSS7 Postbaseline Mean (SD) [12]: 6.39 (4.92)
- HSS7 % Change difference for rilzabrutinib vs.placebo LS Mean (95% CI) [13]: −28.82 %
- HSS7 % Change from baseline LS Mean (SE) [13]: −44.69 (6.50) %
- HSS7 Postbaseline Mean (SD) [13]: 6.85 (4.96)
- HSS7 Postbaseline Mean (SD) (400 mg TID, Week 4, Omalizumab-Naïve Population with Outlier Removed from Analysis): 6.85 (4.96)
- HSS7 % Change difference for rilzabrutinib vs.placebo LS Mean (95% CI) [14]: −23.13 %
- HSS7 % Change from baseline LS Mean (SE) [14]: −52.29 (5.80) %
- HSS7 Change difference for rilzabrutinib vs.placebo LS Mean (95% CI) [14]: −3.09 (−5.36, −0.81)
- HSS7 Change from baseline LS Mean (SE) [14]: −7.73 (0.84)
- HSS7 Postbaseline Mean (SD) [14]: 6.02 (5.11)
- HSS7 % Change difference for rilzabrutinib vs.placebo LS Mean (95% CI) [15]: −18.86 %
- HSS7 % Change from baseline LS Mean (SE) [15]: −49.42 (6.23) %
- HSS7 Postbaseline Mean (SD) [15]: 6.49 (5.14)
- HSS7 Postbaseline Mean (SD) (400 mg TID, Week 5, Omalizumab-Naïve Population with Outlier Removed from Analysis): 6.49 (5.14)
- HSS7 % Change difference for rilzabrutinib vs.placebo LS Mean (95% CI) [16]: −28.20 %
- HSS7 % Change from baseline LS Mean (SE) [16]: −52.27 (6.61) %
- HSS7 Change difference for rilzabrutinib vs.placebo LS Mean (95% CI) [16]: −3.48 (−5.94, −1.02)
- HSS7 Change from baseline LS Mean (SE) [16]: −7.75 (0.91)
- HSS7 Postbaseline Mean (SD) [16]: 6.14 (5.55)
- HSS7 % Change difference for rilzabrutinib vs.placebo LS Mean (95% CI) [17]: −24.11 %
- HSS7 % Change from baseline LS Mean (SE) [17]: −48.15 (7.17) %
- HSS7 Postbaseline Mean (SD) [17]: 6.78 (5.55)
- HSS7 Postbaseline Mean (SD) (400 mg TID, Week 6, Omalizumab-Naïve Population with Outlier Removed from Analysis): 6.78 (5.55)
- HSS7 % Change difference for rilzabrutinib vs.placebo LS Mean (95% CI) [18]: −27.16 %
- HSS7 % Change from baseline LS Mean (SE) [18]: −51.12 (6.01) %
- HSS7 Change difference for rilzabrutinib vs.placebo LS Mean (95% CI) [18]: −3.58 (−5.87, −1.29)
- HSS7 Change from baseline LS Mean (SE) [18]: −7.66 (0.86)
- HSS7 Postbaseline Mean (SD) [18]: 6.18 (4.44)
- HSS7 % Change difference for rilzabrutinib vs.placebo LS Mean (95% CI) [19]: −24.63 %
- HSS7 Postbaseline Mean (SD) [19]: 6.40 (4.54)
- HSS7 Postbaseline Mean (SD) (400 mg TID, Week 7, Omalizumab-Naïve Population with Outlier Removed from Analysis): 6.40 (4.54)
- HSS7 % Change difference for rilzabrutinib vs.placebo LS Mean (95% CI) [20]: −25.27 %
- HSS7 % Change from baseline LS Mean (SE) [20]: −54.34 (6.35) %
- HSS7 Change difference for rilzabrutinib vs.placebo LS Mean (95% CI) [20]: −3.06 (−5.54, −0.58)
- HSS7 Change from baseline LS Mean (SE) [20]: −7.81 (0.92)
- HSS7 Postbaseline Mean (SD) [20]: 5.60 (4.81)
- HSS7 % Change difference for rilzabrutinib vs.placebo LS Mean (95% CI) [21]: −22.36 %
- HSS7 % Change from baseline LS Mean (SE) [21]: −50.37 (7.07) %

Reference: patent US20260256792A1, “TREATMENT OF CHRONIC SPONTANEOUS URTICARIA BY ADMINISTERING (R)-2-[3-[4-AMINO-3-(2-FLUORO-4-PHENOXY-PHENYL)PYRAZOLO[3,4-D]PYRIMIDIN-1-YL]PIPERIDINE-1-CARBONYL]-4-METHYL-4-[4-(OXETAN-3-YL)PIPERAZIN-1-YL]PENT-2-ENENITRILE” (priority 2023, published 2026)
